Laboratory results: article PMC7363885, “Fluorescent artificial receptor-based membrane assay (FARMA) for spatiotemporally resolved monitoring of biomembrane permeability” (Communications Biology, 2020)

Legend:
[1] = system: FAR-1; assay: Fluorescence titration, FAR•analyte complex formation in homogeneous solution; assay type: binding
Procedure: Fluorescence titrations were carried out in aqueous HEPES buffer (10 mM, pH 7, 22 °C) unless stated otherwise. To a solution of the FAR (typically at 10–30 μM) was stepwise added a solution of the analyte (typically up to 2 mM) and the fluorescence spectra were recorded. The normalized emissions at 450 nm (FAR-1) or at 370 nm (FAR-2) were fitted with an equation for a 1 : 1 binding by a least-square fit. The resulting affinity constants are reported in Supplementary Table 1. Representative titration plots are shown in Supplementary Fig. 1. Note that the high CB8-dye binding affinities correspond to a near quantitative degree of host-dye complexation, i.e., quantitative formation of the FAR, such that the subsequent binding of the analyte can be treated independently.

[2] = FARMA: permeation of analytes into FAR-loaded liposomes (fluorescence, cuvette or stopped-flow); details: for membrane permeability (in words): FARMA with FAR-loaded liposomes or GUVs
Text: Elementary physical parameters, such as permeability coefficients, can be extracted from the full kinetic FARMA data. This kinetic profile → parameter mapping requires some assumptions to be made in regard to the permeation mechanism. We applied a reported permeation model for liposomes[31] to arrive at permeation rate constants (kp) and apparent permeability coefficients (Papp). The derivation of the mathematical relation (1), linking the fundamental permeability rate constant and permeability coefficient to experimental measurable kobs rate constants, the known total analyte and total FAR concentration, and the experimentally determined liposome radius (r), is shown in the Supplementary Information.1 Papp=kp⋅r/3=kobs/canalyte⋅cFAR⋅r/3 […]
The volume-to-surface correction factor r/3 accounts for the fact that the observed rates depend on the size, i.e., radius r, of the liposomal assembly. […] The initial-rate method can also be applied, see the Supplementary Information. Moreover, kobs/canalyte can be estimated by single-point measurements at selected canalyte concentration.
A solution of 2.5 mg/mL of POPC and 0.33 mg/mL of POPS in chloroform was purged with nitrogen and dried overnight under […] vacuum. […] The resulting FAR-loaded liposomes were separated from non-encapsulated species by size-exclusion chromatography (NAP-25 column), while maintaining the same buffer. The absence of non-encapsulated FAR was confirmed by adding a non-membrane-permeable species such as tryptophan to a fluorescence cuvette containing 25 µL of liposomes diluted in 1 mL HEPES (10 mM) buffer. Complete removal of non-encapsulated FAR is indicated by the absence of a significant fluorescence change upon Trp addition.
In a typical experiment, 20 µL of liposome solution loaded with FAR was diluted in 1 mL HEPES buffer (10 mM, pH 7.0) in a 1 mL quartz cuvette. An emission spectrum was recorded after 10 min of “equilibration time” on a Varian Eclipse spectrofluorometer thermostated at 22 °C with a water bath using λexc = 400 nm for FAR-1, λexc = 310 nm for FAR-2, and λexc = 330 nm for FAR-3. In the time-resolved experiments, the emission intensity at λobs = 450 nm for FAR-1, λobs = 370 nm for FAR-2, and λobs = 370 and 500 nm for FAR-3 (the latter is the emerging excimer band for certain FAR-3•analyte complexes) was recorded with an averaging time of 0.5 s. […] For single-point experiments, a full spectrum was recorded after a fixed time or several time intervals after analyte addition. […] Only FAR-analyte combinations were used for FARMA, for which no significant autofluorescence and competitive light absorption of the analyte occurred.
For each experiment, measurements from 6 injections were accumulated and the average of these traces was used for data analysis.
Calculation of the unimolecular permeation rate constants ( kp) and of the apparent permeability coefficients (Papp).
The passive diffusion (permeation) of small non-charged compounds follows a modified Fick’s law and can be expressed by a first order kinetics.1 Similar to first order chemical reactions, the kinetics curve can therefore be fitted monoexponentially to obtained the observed permeation rates (kobs). In our assay set-up, such an exponential fit is an approximation, since it neglects that a certain fraction of transported analyte is bound to the FAR and cannot exit the liposome. Nevertheless, the fit of the kinetic curves of the […]
approximation is justified.

[3] = FAR-1, 10 mM HEPES buffer (pH 7), 1:1 binding model, error estimate ≤ 20%
[4] = monoexponential fit, analyte 40 µM (bulk), FAR-2 ca. 500 µM in the liposome interior, 20% error

| Structure (SMILES) | Ka [1, 3] | kobs [2, 4] | kobs ([2]; source data of Fig. 5) | log(kobs) ([2]; source data of Fig. 5) | membrane permeability (in words) [2] | Ka ([1]; pH 7) |
| --- | --- | --- | --- | --- | --- | --- |
| CCCN(CCOc1c(Cl)cc(Cl)cc1Cl)C(=O)n1ccnc1 [prochloraz] | 2.8 10^3 M−1 |  |  |  |  |  |
| CC(C)(O/N=C(\C(=O)N[C@@H]1C(=O)N2C(C(=O)[O-])=C(C[n+]3ccccc3)CS[C@H]12)c1csc(N)n1)C(=O)O [ceftazidime, reference compound] | < 1 10^3 M−1 |  |  |  |  |  |
| Nc1ccc(Cl)cc1 [4Cl-aniline, 4-chloroaniline] |  | 4.0 s–1 | 4 | 0.6021 |  |  |
| C=C(C)[C@H]1Cc2c(ccc3c2O[C@@H]2COc4cc(OC)c(OC)cc4[C@@H]2C3=O)O1 [rotenone] | 4.8 10^3 M−1 |  |  |  |  |  |
| Oc1ccc(F)cc1 [4F-phenol] |  | 2.8 s–1 | 2.8 | 0.4472 |  |  |
| NCCc1ccccc1 [phenethylamine] | 8 10^3 M−1 | 0.22 s–1 | 0.22 | -0.6576 |  |  |
| c1ccc2[nH]cnc2c1 [benzimidazole] | 7.5 10^3 M−1 | 2.7 s–1 | 2.7 | 0.4314 |  |  |
| Oc1ccccc1O [1,2-dihydroxybenzene] | 20 10^3 M−1 |  |  |  | “instantaneously” permeating |  |
| Nc1c(F)c(F)c(F)c(F)c1F [pentafluoroaniline] |  | 0.51 s–1 | 0.51 | -0.2924 |  |  |
| O=P(O)(O)Oc1ccc2ccccc2c1 [2-naphthyl phosphate] |  |  |  |  | membrane-impermeable |  |
| c1ccccc1 [benzene] | 4 10^3 M−1 |  |  |  |  |  |
| Nc1ccc(I)cc1 [4I-aniline] |  | 3.1 s–1 | 3.1 | 0.4914 |  |  |
| Oc1ccc(Cl)cc1 [4Cl-phenol, 4-chlorophenol] |  | 2.2 s–1 | 2.2 | 0.3424 |  |  |
| O=C(N[C@H](CO)[C@H](O)c1ccc([N+](=O)[O-])cc1)C(Cl)Cl [chloramphenicol, reference compound] | < 1 10^3 M−1 |  |  |  |  |  |
| Nc1ccc(F)cc1 [4F-aniline] |  | 4.4 s–1 | 4.4 | 0.6434 |  |  |
| N[C@@H](Cc1c[nH]c2ccc(O)cc12)C(=O)O [5HO-Trp, 5-hydroxy tryptophan] | 7.7 10^3 M−1 |  |  |  |  |  |
| Oc1ccc(I)cc1 [4I-phenol, 4-iodophenol] |  | 0.69 s–1 | 0.69 | -0.1611 |  |  |
| c1ccc2[nH]ncc2c1 [indazole] |  | 2.4 s–1 | 2.4 | 0.3802 |  |  |
| O=C1C=CC(=O)C=C1 [1,4-benzoquinone] | 0.5 10^3 M−1 |  |  |  |  |  |
| COc1ccc2cc([C@H](C)C(=O)O)ccc2c1 [naproxen, reference compound] | 2 10^3 M−1 |  |  |  |  |  |
| O=[N+]([O-])c1ccc(O)cc1 [4NO2-phenol] |  | 38 s–1 | 38 | 1.58 |  |  |
| Nc1ccc(Br)cc1 [4Br-aniline, 4-bromoaniline] |  | 4.0 s–1 | 4 | 0.6021 |  |  |
| Cc1ccccc1O [2Me-phenol, 2-methylphenol] |  | 0.33 s–1 | 0.33 | -0.4815 |  |  |
| N#Cc1ccc(N)cc1 [4CN-aniline, 4-cyanoaniline] |  | 6.5 s–1 | 6.5 | 0.8129 |  |  |
| O=C(O)C(=O)Cc1ccc(O)cc1 [4-hydroxyphenylpyruvic acid] | 17 10^3 M−1 |  |  |  |  |  |
| CN(C)c1ccc(C#N)cc1 [DMABN, 4-(N,N-dimethylamino) benzonitrile] |  | 0.68 s–1 | 0.68 | -0.1675 |  |  |
| CC(=O)NC(Cc1c[nH]c2ccccc12)C(=O)O (stereo not drawn) [NAc-Trp] | 50 10^3 M−1 |  |  |  |  |  |
| O=C(O)Cc1cc(O)ccc1O [homogentisic acid] |  |  |  |  |  | 0.14 |
| c1ccc2ncccc2c1 [quinoline] | 2.2 10^3 M−1 |  |  |  |  |  |
| CC(=O)Nc1ccc(O)cc1 [paracetamol, reference compound] | 7 10^3 M−1 |  |  |  |  |  |
